One assay deals with Zymoseptoria tritici. As to the kind of experiment: Leaf Blotch of Wheat (SEPTTR) fungicidal activity. The class given is in vivo. The conditions noted are these: Low Volume (121.5 g/H). On the procedure: Technical grades of materials were dissolved in acetone, which were then mixed with nine volumes of H2O containing 110 ppm Triton X-100. The fungicide solutions were applied onto wheat seedlings using an automated booth sprayer to run-off. All sprayed plants were allowed to air dry prior to further handling. All fungicides were evaluated using the aforementioned method for their activity vs. all target diseases, unless stated otherwise. Wheat leaf blotch and brown rust activity were also evaluated using track spray applications, in which case the fungicides were formulated as EC formulations, containing 0.1% Trycol 5941 in the spray solutions. Wheat plants (variety Yuma) were grown from seed in a greenhouse in 50% mineral soil/50% soil-less Metro mix until the first leaf was fully emerged, with 7-10 seedlings per pot. These plants were inoculated with an aqueous spore suspension of Zymoseptoria tritici either prior to or after fungicide treatments. After inoculation the plants were kept in 100% relative humidity (one day in a dark dew chamber followed by two to three days in a lighted dew chamber at 20° C.) to permit spores to germinate and infect the leaf. The plants were then transferred to a greenhouse set at 20° C. for disease to develop. When disease symptoms were fully expressed on the 1st leaves of untreated plants, infection levels were assessed on a scale of 0 to 100 percent disease severity. Percent disease control was calculated using the ratio of disease severity on treated plants relative to untreated plants.

For another assay, the system named is Puccinia triticina. Nature of the assay: Wheat Brown Rust (PUCCRT) fungicidal activity. The class given is in vivo. The conditions noted are these: Low Volume (121.5 g/H). On the procedure:
Technical grades of materials were dissolved in acetone, which were then mixed with nine volumes of H2O containing 110 ppm Triton X-100. The fungicide solutions were applied onto wheat seedlings using an automated booth sprayer to run-off. All sprayed plants were allowed to air dry prior to further handling. All fungicides were evaluated using the aforementioned method for their activity vs. all target diseases, unless stated otherwise. Wheat leaf blotch and brown rust activity were also evaluated using track spray applications, in which case the fungicides were formulated as EC formulations, containing 0.1% Trycol 5941 in the spray solutions. Wheat plants (variety Yuma) were grown from seed in a greenhouse in 50% mineral soil/50% soil-less Metro mix until the first leaf was fully emerged, with 7-10 seedlings per pot. These plants were inoculated with an aqueous spore suspension of Puccinia triticina either prior to or after fungicide treatments. After inoculation the plants were kept in a dark dew room at 22° C. with 100% relative humidity overnight to permit spores to germinate and infect the leaf. The plants were then transferred to a greenhouse set at 24° C. for disease to develop. Fungicide formulation, application and disease assessment followed the procedures as described in the Example A.

Setting [1] is: 24 h, 1 Day Protectant, read-out: SEPTTR 1DP disease control.
Setting [2] is: 72 h, 3 Day Curative, read-out: SEPTTR 3DC disease control.
[3] abbreviates: 24 h, 1 Day Protectant, read-out: PUCCRT 1DP disease control.
[4] abbreviates: 72 h, 3 Day Curative, read-out: PUCCRT 3DC disease control.

Like-named read-outs stand apart in the source and are kept apart here.

Regarding `CCC[C@H]1CCCC[C@H](NC(=O)c2nccc(OC)c2OCOC(C)=O)C(=O)O[C@@H](C)[C@@H]1OCC(C)C` [Cmpd 30, ((2-(((3S,8S,9R,10S)-9-isobutoxy-10-methyl-2-oxo-8-propyloxecan-3-yl)carbamoyl)-4-methoxypyridin-3-yl)oxy)methyl acetate], the pest or weed control at 121.5 g/ha is less than 80% in the assay on Zymoseptoria tritici (setting [1]), less than 80% in the assay with Zymoseptoria tritici (setting [2]), more than 80% in the assay on Puccinia triticina (setting [3]) and less than 80% in the assay on Puccinia triticina (setting [4]).
Take `COc1ccnc(C(=O)N[C@H]2COCC[C@H](OCc3ccccc3)[C@@H](OCc3ccccc3)[C@H](C)OC2=O)c1OCOC(C)=O` [Compound 1]: the pest or weed control at 121.5 g/ha in the assay with Zymoseptoria tritici (setting [1]) was more than 80%; with Zymoseptoria tritici (setting [2]), less than 80%; in the assay on Puccinia triticina (setting [3]) it was more than 80%.
In the case of `CCCCO[C@H]1CCOC[C@H](NC(=O)c2nccc(OC)c2OCOC(C)=O)C(=O)O[C@@H](C)[C@@H]1OCc1ccccc1` [Compound 2], the pest or weed control at 121.5 g/ha with Zymoseptoria tritici (setting [1]) is less than 80%; with Puccinia triticina (setting [3]), more than 80%; with Puccinia triticina (setting [4]), more than 80%.
Turning to `CCCCO[C@H]1CCOC[C@H](NC(=O)c2nccc(OC)c2OCOC(C)=O)C(=O)O[C@@H](C)[C@@H]1OC(=O)c1ccccc1` [Compound 4], the pest or weed control at 121.5 g/ha is less than 80% in the assay on Zymoseptoria tritici (setting [1]), more than 80% in the assay on Puccinia triticina (setting [3]) and more than 80% with Puccinia triticina (setting [4]).
For the compound `COc1ccnc(C(=O)N[C@H]2CCCC[C@H](OCc3ccccc3)[C@@H](OCc3ccccc3)[C@H](C)OC2=O)c1OCOC(C)=O` [Compound 8], the pest or weed control at 121.5 g/ha in the assay with Zymoseptoria tritici (setting [1]), in the assay with Zymoseptoria tritici (setting [2]), in the assay with Puccinia triticina (setting [3]) and in the assay with Puccinia triticina (setting [4]) was more than 80% each time.
As for `COc1ccnc(C(=O)N[C@H]2CCCC[C@H](OCc3ccccc3)[C@@H](OCc3ccccc3)[C@H](C)OC2=O)c1OC(C)=O` [Compound 9], the pest or weed control at 121.5 g/ha in the assay on Zymoseptoria tritici (setting [1]) was more than 80%; in the assay on Zymoseptoria tritici (setting [2]), more than 80%; in the assay with Puccinia triticina (setting [3]), more than 80%; in the assay with Puccinia triticina (setting [4]) it was less than 80%.
For `COc1ccnc(C(=O)N[C@H]2CCCC[C@H](OC)[C@@H](Oc3ccccc3)[C@H](C)OC2=O)c1OCOC(C)=O` [Compound 11], the pest or weed control at 121.5 g/ha with Zymoseptoria tritici (setting [1]), in the assay on Zymoseptoria tritici (setting [2]), with Puccinia triticina (setting [3]) and in the assay on Puccinia triticina (setting [4]) was more than 80% each time.
As to `COc1ccnc(C(=O)N[C@H]2CCCC[C@H](OCC(C)C)[C@@H](Oc3ccccc3)[C@H](C)OC2=O)c1OCOC(C)=O` [Compound 13], the pest or weed control at 121.5 g/ha in the assay with Zymoseptoria tritici (setting [1]), in the assay on Zymoseptoria tritici (setting [2]), with Puccinia triticina (setting [3]) and in the assay with Puccinia triticina (setting [4]) was more than 80% each time.
On to `COc1ccnc(C(=O)N[C@H]2CCCC[C@H](OCC(C)C)[C@@H](OCC(C)C)[C@H](C)OC2=O)c1OCOC(C)=O` [Compound 14], for which the pest or weed control at 121.5 g/ha in the assay on Zymoseptoria tritici (setting [1]) was more than 80%; with Zymoseptoria tritici (setting [2]) it was less than 80%; with Puccinia triticina (setting [3]), more than 80%; in the assay on Puccinia triticina (setting [4]), less than 80%.
On to `CCCCCO[C@H]1[C@H](C)OC(=O)[C@@H](NC(=O)c2nccc(OC)c2OCOC(C)=O)CCCC[C@@H]1OC(=O)c1ccccc1` [Compound 15], for which the pest or weed control at 121.5 g/ha with Zymoseptoria tritici (setting [1]) was more than 80%; in the assay on Zymoseptoria tritici (setting [2]) it was more than 80%; in the assay on Puccinia triticina (setting [3]), more than 80%; in the assay on Puccinia triticina (setting [4]), less than 80%.
`COc1ccnc(C(=O)N[C@H]2CCOC[C@H](Cc3ccccc3)[C@@H](OCC(C)C)[C@H](C)OC2=O)c1OCOC(C)=O` [Compound 16]: the pest or weed control at 121.5 g/ha with Zymoseptoria tritici (setting [1]) is less than 80%; in the assay on Zymoseptoria tritici (setting [2]), less than 80%; in the assay on Puccinia triticina (setting [3]) it was more than 80%; in the assay with Puccinia triticina (setting [4]), less than 80%.
`COc1ccnc(C(=O)N[C@H]2CCCC[C@H](Oc3ccccc3)[C@@H](Oc3ccccc3)[C@H](C)OC2=O)c1OCOC(C)=O` [Compound 19]: the pest or weed control at 121.5 g/ha in the assay with Zymoseptoria tritici (setting [1]), in the assay with Zymoseptoria tritici (setting [2]), in the assay with Puccinia triticina (setting [3]) and in the assay on Puccinia triticina (setting [4]) was more than 80% throughout.
On to `COc1ccnc(C(=O)N[C@H]2COCC[C@H](Cc3ccccc3)[C@@H](OCC(C)C)[C@H](C)OC2=O)c1OCOC(C)=O` [Compound 20], for which the pest or weed control at 121.5 g/ha in the assay with Zymoseptoria tritici (setting [1]) is less than 80%; in the assay with Zymoseptoria tritici (setting [2]) it was more than 80%; with Puccinia triticina (setting [3]) it was more than 80%; in the assay on Puccinia triticina (setting [4]), more than 80%.
Consider `COc1ccnc(C(=O)N[C@H]2COCC[C@H](Cc3ccccc3)[C@@H](OCC(C)C)[C@H](C)OC2=O)c1OC(C)=O` [Compound 21], for which the pest or weed control at 121.5 g/ha was less than 80% in the assay on Zymoseptoria tritici (setting [1]), more than 80% in the assay on Zymoseptoria tritici (setting [2]), more than 80% in the assay on Puccinia triticina (setting [3]) and more than 80% in the assay with Puccinia triticina (setting [4]).
On to `COc1ccnc(C(=O)N[C@H]2CCCC[C@H](OC)[C@@H](OC)[C@H](C)OC2=O)c1OCOC(C)=O` [Compound 22], for which the pest or weed control at 121.5 g/ha with Zymoseptoria tritici (setting [2]) was less than 80%; in the assay with Puccinia triticina (setting [3]), more than 80%; in the assay on Puccinia triticina (setting [4]), more than 80%.
In the case of `CCCO[C@H]1CCCC[C@H](NC(=O)c2nccc(OC)c2OCOC(C)=O)C(=O)O[C@@H](C)[C@@H]1Oc1ccccc1` [Compound 23], the pest or weed control at 121.5 g/ha in the assay on Zymoseptoria tritici (setting [1]), in the assay with Zymoseptoria tritici (setting [2]), with Puccinia triticina (setting [3]) and with Puccinia triticina (setting [4]) was more than 80% throughout.
On to `COc1ccnc(C(=O)N[C@H]2CCCC[C@H](Cc3ccccc3)[C@@H](OCC(C)C)[C@H](C)OC2=O)c1OCOC(C)=O` [Compound 24], for which the pest or weed control at 121.5 g/ha with Zymoseptoria tritici (setting [1]) is more than 80%; in the assay with Zymoseptoria tritici (setting [2]) it was more than 80%; with Puccinia triticina (setting [3]) it was more than 80%; with Puccinia triticina (setting [4]) it was less than 80%.
For `COc1ccnc(C(=O)N[C@H]2CCCC[C@H](Oc3ccccc3)[C@@H](Oc3ccccc3)[C@H](C)OC2=O)c1OC(C)=O` [Compound 25], the pest or weed control at 121.5 g/ha in the assay with Zymoseptoria tritici (setting [1]) is more than 80%; with Zymoseptoria tritici (setting [2]), less than 80%; with Puccinia triticina (setting [3]) it was more than 80%; in the assay with Puccinia triticina (setting [4]), less than 80%.
Take `CCCO[C@H]1CCCC[C@H](NC(=O)c2nccc(OC)c2OC(C)=O)C(=O)O[C@@H](C)[C@@H]1Oc1ccccc1` [Compound 26]: the pest or weed control at 121.5 g/ha in the assay with Zymoseptoria tritici (setting [1]), in the assay with Zymoseptoria tritici (setting [2]), in the assay on Puccinia triticina (setting [3]) and with Puccinia triticina (setting [4]) was more than 80% each time.
With `COc1ccnc(C(=O)N[C@H]2CCCC[C@H](OC)[C@@H](OC)[C@H](C)OC2=O)c1OC(C)=O` [Compound 27], the figures for the pest or weed control at 121.5 g/ha with Zymoseptoria tritici (setting [1]), in the assay on Puccinia triticina (setting [3]) and with Puccinia triticina (setting [4]) were less than 80%, more than 80% and more than 80%, respectively.
For `COc1ccnc(C(=O)N[C@H]2CCCC[C@H](OC)[C@@H](OCC(C)C)[C@H](C)OC2=O)c1OC(C)=O` [Compound 28], the pest or weed control at 121.5 g/ha is less than 80% with Zymoseptoria tritici (setting [1]), more than 80% in the assay with Zymoseptoria tritici (setting [2]), more than 80% in the assay on Puccinia triticina (setting [3]) and more than 80% with Puccinia triticina (setting [4]).
Take `COc1ccnc(C(=O)N[C@H]2CCCC[C@@H]3OC(C)(C)O[C@H]3[C@H](C)OC2=O)c1OC(C)=O` [Compound 29]: the pest or weed control at 121.5 g/ha is less than 80% in the assay on Zymoseptoria tritici (setting [1]), more than 80% in the assay with Zymoseptoria tritici (setting [2]), more than 80% in the assay with Puccinia triticina (setting [3]) and more than 80% in the assay with Puccinia triticina (setting [4]).
In the case of `CCC[C@H]1CCCC[C@H](NC(=O)c2nccc(OC)c2OCOC(C)=O)C(=O)O[C@@H](C)[C@@H]1OC(=O)C(C)C` [Compound 31], the pest or weed control at 121.5 g/ha with Zymoseptoria tritici (setting [1]) was less than 80%; in the assay on Zymoseptoria tritici (setting [2]), less than 80%; in the assay with Puccinia triticina (setting [3]), more than 80%; in the assay on Puccinia triticina (setting [4]), less than 80%.
In the case of `COc1ccnc(C(=O)N[C@H]2CCCC[C@H](OC3CCCC3)[C@@H](OC)[C@H](C)OC2=O)c1OCOC(C)=O` [Compound 35], the pest or weed control at 121.5 g/ha is more than 80% in the assay on Puccinia triticina (setting [3]) and less than 80% with Puccinia triticina (setting [4]).
On to `COc1ccnc(C(=O)N[C@H]2CCOC[C@H](OCC(C)C)[C@@H](OCC(C)C)[C@H](C)OC2=O)c1OCOC(C)=O` [Compound 43], for which the pest or weed control at 121.5 g/ha in the assay on Puccinia triticina (setting [3]) was more than 80%; with Puccinia triticina (setting [4]), less than 80%.

The values are drawn from patent US20180002320A1, “USE OF MACROCYCLIC PICOLINAMIDES AS FUNGICIDES” (DOW AGROSCIENCES LLC, priority 2014, published 2018).
